The record followed here is patent publication US9957297B2, “Template-fixed peptidomimetics as inhibitors of FPR1” (POLYPHOR AG, priority 2011, dated 2018).

Where a SMILES comes first, the peptide text is derived from it. Bridges are numbered along the chain shown (N, C = ends). [ ]: non-standard residue; d: D form. Dab = NCC[C@H](N)C(=O)O

This assay addresses T1, FPR1 (Homo sapiens, UniProt P21462).
T1 construct: host or cells: CHO (PathHunter CHO-FPR1 β-arrestin cells)
T1 sequence (P21462 1-350): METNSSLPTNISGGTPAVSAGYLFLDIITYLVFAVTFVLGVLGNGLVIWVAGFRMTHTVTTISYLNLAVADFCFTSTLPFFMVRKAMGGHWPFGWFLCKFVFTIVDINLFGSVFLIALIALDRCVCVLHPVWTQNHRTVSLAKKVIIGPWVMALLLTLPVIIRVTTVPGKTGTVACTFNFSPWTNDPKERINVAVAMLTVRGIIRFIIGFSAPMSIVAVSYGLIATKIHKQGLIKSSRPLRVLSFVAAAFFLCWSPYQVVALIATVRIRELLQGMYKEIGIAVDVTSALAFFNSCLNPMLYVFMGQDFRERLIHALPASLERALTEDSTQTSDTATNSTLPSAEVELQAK
Put plainly: FPR1 β-arrestin recruitment assay (PathHunter CHO-FPR1, antagonistic mode). It counts as cell-based. To be noted: CHO FPR1 β-arrestin cells; antagonistic assay vs reference agonist fMLF at its EC80; 60 min preincubation. How it is done:
2.2 FPR1 β-Arrestin Recruitment Assay
The PathHunter CHO—FPR1 (DiscoverX) assay was performed according to the manufacturer's protocol. In brief, CHO FPR1 β-arrestin cells were seeded at a density of 9000 cells per well in 20 μl of Ham's F12 medium (Invitrogen) in black 384-well culture plates and incubated overnight at 37° C. in a humidified atmosphere with 5% CO2. The next day, serial dilutions of the β-hairpin peptidomimetics of this invention have been prepared in DMSO and subsequently diluted in HBSS buffer supplemented with 20 mM Hepes and 0.1% BSA.
For antagonistic assay, 5 μl of compound solution or buffer was added to the cells with a final DMSO concentration of 0.5% (v/v). The plate was incubated for 60 min at 37° C. with 5% CO2 before addition of […] of the reference agonist fMLF peptide (Sigma-Aldrich) at its EC80 concentration. After 90 min of incubation at 37° C. with 5% CO2, 15 μl of beta-Glo detection reagent (Promega) were added. Reaction was developed for 20 min at room temperature and chemiluminescence was measured with a Victor2V (Perkin Elmer) luminescence reader.
A general note: Activated receptors often draw arrestin, which recruitment assays turn into a signal.

Broadly, the IC50 is the concentration that inhibits the measured activity by half.

Turning to `CC[C@H](C)[C@@H]1NC(=O)[C@H]([C@@H](C)O)NC(=O)[C@H](Cc2c[nH]c3ccccc23)NC(=O)[C@H]2CCCN2C(=O)CNC(=O)[C@H](Cc2c[nH]c3ccccc23)NC(=O)[C@@H]2CSSC[C@H](NC1=O)C(=O)N[C@@H](Cc1ccc(O)cc1)C(=O)N[C@@H](CCC(=O)O)C(=O)N[C@@H](CCCCN)C(=O)N[C@H](CCCCN)C(=O)N1CCC[C@H]1C(=O)N[C@@H](Cc1ccc(O)cc1)C(=O)N[C@@H](Cc1c[nH]cn1)C(=O)N[C@@H](CCCCN)C(=O)N2` [compound 43, cyclo(-Tyr-His-Lys-Cys-Trp-Gly-^DPro-Trp-Thr-Ile-Cys-Tyr-Glu-Lys-^DLys-Pro-)] (cyclo(YHKCWG[dP]WTICYEK[dK]P); disulfide 4-11), the IC50 amounted to 126 ± 53 nM. The result for `CC[C@H](C)[C@@H]1NC(=O)[C@H]([C@@H](C)O)NC(=O)[C@H](Cc2c[nH]c3ccccc23)NC(=O)[C@@H](C)NC(=O)CNC(=O)[C@H](Cc2c[nH]cn2)NC(=O)[C@@H]2CSSC[C@H](NC1=O)C(=O)N[C@@H](Cc1ccc(O)cc1)C(=O)N[C@@H](CCC(=O)O)C(=O)N[C@@H](CCCCN)C(=O)N1CCC[C@@H]1C(=O)N1CCC[C@H]1C(=O)N[C@@H](Cc1ccc(O)cc1)C(=O)N[C@@H](Cc1c[nH]cn1)C(=O)N[C@@H](CCCCN)C(=O)N2` [compound 71, cyclo(-Tyr-His-Lys-Cys-His-Gly-^DAla-Trp-Thr-Ile-Cys-Tyr-Glu-Lys-^DPro-Pro-)] (cyclo(YHKCHG[dA]WTICYEK[dP]P); disulfide 4-11) reads 77 ± 4 nM; that for `CC[C@H](C)[C@@H]1NC(=O)[C@H]([C@@H](C)O)NC(=O)[C@H](Cc2c[nH]c3ccccc23)NC(=O)[C@@H](C)NC(=O)CNC(=O)[C@H](Cc2c[nH]cn2)NC(=O)[C@@H]2CSSC[C@H](NC1=O)C(=O)N[C@@H](Cc1ccc(O)cc1)C(=O)N[C@@H](CCC(=O)O)C(=O)N[C@@H](CCCCN)C(=O)N1CCC[C@@H]1C(=O)N[C@@H](CCC(=O)O)C(=O)N[C@@H](Cc1ccc(O)cc1)C(=O)N[C@@H](Cc1c[nH]cn1)C(=O)N[C@@H](CCCCN)C(=O)N2` [Ex. 4, cyclo(-Tyr-His-Lys-Cys-His-Gly-^DAla-Trp-Thr-Ile-Cys-Tyr-Glu-Lys-^DPro-Glu-)] (cyclo(YHKCHG[dA]WTICYEK[dP]E); disulfide 4-11), 77 ± 22 nM; that for `CC[C@H](C)[C@@H]1NC(=O)[C@H]([C@@H](C)O)NC(=O)[C@H](Cc2c[nH]c3ccccc23)NC(=O)[C@H]2CCCN2C(=O)CNC(=O)[C@H](Cc2c[nH]c3ccccc23)NC(=O)[C@@H]2CSSC[C@H](NC1=O)C(=O)N[C@@H](Cc1ccc(O)cc1)C(=O)N[C@@H](CCC(=O)O)C(=O)N[C@@H](CCCCN)C(=O)N1CCC[C@@H]1C(=O)N1CCC[C@H]1C(=O)N[C@@H](Cc1ccc(O)cc1)C(=O)N[C@@H](Cc1c[nH]cn1)C(=O)N[C@@H](CCCCN)C(=O)N2` [compound 51, cyclo(-Tyr-His-Lys-Cys-Trp-Gly-^DPro-Trp-Thr-Ile-Cys-Tyr-Glu-Lys-^DPro-Pro-)] (cyclo(YHKCWG[dP]WTICYEK[dP]P); disulfide 4-11), 54 ± 21 nM.

For `CC[C@H](C)[C@@H]1NC(=O)[C@H]([C@@H](C)O)NC(=O)[C@H](Cc2c[nH]c3ccccc23)NC(=O)[C@H]2CCCN2C(=O)CNC(=O)[C@H](Cc2c[nH]c3ccccc23)NC(=O)[C@@H]2CSSC[C@H](NC1=O)C(=O)N[C@@H]([C@@H](C)O)C(=O)N[C@@H](CCC(N)=O)C(=O)N[C@@H](CCCCN)C(=O)N1CCC[C@@H]1C(=O)N1CCC[C@H]1C(=O)N[C@@H](Cc1ccc(O)cc1)C(=O)N[C@@H](Cc1c[nH]cn1)C(=O)N[C@@H](C)C(=O)N2` [compound 34, cyclo(-Tyr-His-Ala-Cys-Trp-Gly-^DPro-Trp-Thr-Ile-Cys-Thr-Gln-Lys-^DPro-Pro-)] (cyclo(YHACWG[dP]WTICTQK[dP]P); disulfide 4-11), the IC50 was 685 ± 68 nM. As for `CC[C@H](C)[C@@H]1NC(=O)[C@H]([C@@H](C)O)NC(=O)[C@H](Cc2c[nH]c3ccccc23)NC(=O)[C@H]2CCCN2C(=O)CNC(=O)[C@H](Cc2c[nH]c3ccccc23)NC(=O)[C@@H]2CSSC[C@H](NC1=O)C(=O)N[C@@H](Cc1ccc(O)cc1)C(=O)N[C@@H](CCC(=O)O)C(=O)N[C@@H](CCCCN)C(=O)N[C@H](C)C(=O)N1CCC[C@H]1C(=O)N[C@@H](Cc1ccc(O)cc1)C(=O)N[C@@H](Cc1c[nH]cn1)C(=O)N[C@@H](CCCCN)C(=O)N2` [compound 42, cyclo(-Tyr-His-Lys-Cys-Trp-Gly-^DPro-Trp-Thr-Ile-Cys-Tyr-Glu-Lys-^DAla-Pro-)] (cyclo(YHKCWG[dP]WTICYEK[dA]P); disulfide 4-11), the figure is 126 ± 78 nM. The result for `CC[C@H](C)[C@@H]1NC(=O)[C@H]([C@@H](C)O)NC(=O)[C@H](Cc2c[nH]c3ccccc23)NC(=O)[C@H]2CCCN2C(=O)CNC(=O)[C@H](Cc2c[nH]cn2)NC(=O)[C@@H]2CSSC[C@H](NC1=O)C(=O)N[C@@H](Cc1ccc(O)cc1)C(=O)N[C@@H](CCC(=O)O)C(=O)N[C@@H](CCCCN)C(=O)N[C@H](C)C(=O)N[C@@H](CCC(=O)O)C(=O)N[C@@H](Cc1ccc(O)cc1)C(=O)N[C@@H](Cc1c[nH]cn1)C(=O)N[C@@H](CCCCN)C(=O)N2` [compound 6, cyclo(-Tyr-His-Lys-Cys-His-Gly-^DPro-Trp-Thr-Ile-Cys-Tyr-Glu-Lys-^DAla-Glu-)] (cyclo(YHKCHG[dP]WTICYEK[dA]E); disulfide 4-11) reads 124 ± 10 nM; that for `CC[C@H](C)[C@@H]1NC(=O)[C@H]([C@@H](C)O)NC(=O)[C@H](Cc2c[nH]c3ccccc23)NC(=O)[C@H]2CCCN2C(=O)CNC(=O)[C@H](Cc2c[nH]cn2)NC(=O)[C@@H]2CSSC[C@H](NC1=O)C(=O)N[C@@H](Cc1ccc(O)cc1)C(=O)N[C@@H](CCC(=O)O)C(=O)N[C@@H](CCCCN)C(=O)N1CCC[C@@H]1C(=O)N[C@@H](CCN)C(=O)N[C@@H](Cc1ccc(O)cc1)C(=O)N[C@@H](Cc1c[nH]cn1)C(=O)N[C@@H](CCCCN)C(=O)N2` [Ex. 89, cyclo(-Tyr-His-Lys-Cys-His-Gly-^DPro-Trp-Thr-Ile-Cys-Tyr-Glu-Lys-^DPro-Dab-)] (cyclo(YHKCHG[dP]WTICYEK[dP][Dab]); disulfide 4-11), 189 ± 65 nM. Regarding `CC[C@H](C)[C@@H]1NC(=O)[C@H]([C@@H](C)O)NC(=O)[C@H](Cc2c[nH]c3ccccc23)NC(=O)[C@H]2CCCN2C(=O)CNC(=O)[C@H](Cc2c[nH]cn2)NC(=O)[C@@H]2CSSC[C@H](NC1=O)C(=O)N[C@@H](Cc1ccc(O)cc1)C(=O)N[C@@H](CCC(N)=O)C(=O)N[C@@H](CCCCN)C(=O)N1CCC[C@@H]1C(=O)N1CCC[C@H]1C(=O)N[C@@H](Cc1ccc(O)cc1)C(=O)N[C@@H](Cc1c[nH]cn1)C(=O)N[C@@H](Cc1c[nH]c3ccccc13)C(=O)N2` [Ex. 11, cyclo(-Tyr-His-Trp-Cys-His-Gly-^DPro-Trp-Thr-Ile-Cys-Tyr-Gln-Lys-^DPro-Pro-)] (cyclo(YHWCHG[dP]WTICYQK[dP]P); disulfide 4-11), the IC50 was 177 ± 121 nM.

With `CC[C@H](C)[C@@H]1NC(=O)[C@H]([C@@H](C)O)NC(=O)[C@H](Cc2c[nH]c3ccccc23)NC(=O)[C@H]2CCCN2C(=O)CNC(=O)[C@H](Cc2c[nH]cn2)NC(=O)[C@@H]2CSSC[C@H](NC1=O)C(=O)N[C@@H](Cc1ccc(O)cc1)C(=O)N[C@@H](CCC(=O)O)C(=O)N[C@@H](CCCCN)C(=O)N1CCC[C@@H]1C(=O)N1CCC[C@H]1C(=O)N[C@@H](CC(=O)O)C(=O)N[C@@H](Cc1c[nH]cn1)C(=O)N[C@@H](CCCCN)C(=O)N2` [compound 66, cyclo(-Asp-His-Lys-Cys-His-Gly-^DPro-Trp-Thr-Ile-Cys-Tyr-Glu-Lys-^DPro-Pro-)] (cyclo(DHKCHG[dP]WTICYEK[dP]P); disulfide 4-11), the IC50 came out at 177 ± 28 nM.

Turning to `CC[C@H](C)[C@@H]1NC(=O)[C@H]([C@@H](C)O)NC(=O)[C@H](Cc2c[nH]c3ccccc23)NC(=O)[C@H]2CCCN2C(=O)CNC(=O)[C@H](Cc2c[nH]cn2)NC(=O)[C@@H]2CSSC[C@H](NC1=O)C(=O)N[C@@H](Cc1ccc(O)cc1)C(=O)N[C@@H](CCC(=O)O)C(=O)N[C@@H](CCN)C(=O)N1CCC[C@@H]1C(=O)N1CCC[C@H]1C(=O)N[C@@H](Cc1ccc(O)cc1)C(=O)N[C@@H](Cc1c[nH]cn1)C(=O)N[C@@H](CCCCN)C(=O)N2` [compound 56, cyclo(-Tyr-His-Lys-Cys-His-Gly-^DPro-Trp-Thr-Ile-Cys-Tyr-Glu-Dab-^DPro-Pro-)] (cyclo(YHKCHG[dP]WTICYE[Dab][dP]P); disulfide 4-11), the IC50 worked out at 82 ± 29 nM. The result for `CC[C@H](C)[C@@H]1NC(=O)[C@H]([C@@H](C)O)NC(=O)[C@H](Cc2c[nH]c3ccccc23)NC(=O)[C@H]2CCCN2C(=O)CNC(=O)[C@H](Cc2c[nH]c3ccccc23)NC(=O)[C@@H]2CSSC[C@H](NC1=O)C(=O)N[C@@H](Cc1ccc(O)cc1)C(=O)N[C@@H](CCC(N)=O)C(=O)N[C@@H](CCCCN)C(=O)N1CCC[C@@H]1C(=O)N1CCC[C@H]1C(=O)N[C@@H](Cc1ccc(O)cc1)C(=O)N[C@@H](Cc1c[nH]cn1)C(=O)N[C@@H](C)C(=O)N2` [Ex. 40, cyclo(-Tyr-His-Ala-Cys-Trp-Gly-^DPro-Trp-Thr-Ile-Cys-Tyr-Gln-Lys-^DPro-Pro-)] (cyclo(YHACWG[dP]WTICYQK[dP]P); disulfide 4-11) reads 96 ± 30 nM.
